Experimental data: the supplement of paper PMC4862054

Assays:
Conditions in all cases: 72 h
BT-474 [1] = test system: BT-474
Outline: (§1)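 After 72 h on 384-well plates pre-loaded with compound in 5 µl medium, breast cancer cell lines seeded in 20 µl were assayed for viability with 2.5 µl CellTiter-Blue at 37 °C for 2 h, read at 560/590 nm. Each plate was quality-checked by Z'-factor and normalised to vehicle and a positive kill control. EC50 comes from the fitted percent-inhibition dose-response curve, censored at the top concentration, and rows scoring zero for drug sensitivity were left out.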

HDQ-P1 [2] = test system: HDQ-P1
Outline: (§2)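 Breast cancer cell lines in 20 µl suspension were added to 384-well plates already holding compound at 5 concentrations, spaced in 10-fold steps across a compound-specific 10,000-fold range, and incubated for 72 h. CellTox Green fluorescence (485/520 nm) was read first to measure cell death, followed by CellTiter-Glo luminescence for viability after 10 min at room temperature. Each plate was normalised to 0.1 % DMSO and a positive kill control. EC50 values came from dose-response curve fits and were censored at the top concentration.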

MDA-MB-436 [3] = test system: MDA-MB-436
Outline: as §2

MCF-10A [4] = test system: MCF-10A
Outline: as §2

Hs578T [5] = test system: Hs578T
Outline: as §2

CAL-85-1 [6] = test system: CAL-85-1
Outline: as §2

MFM-223 [7] = test system: MFM-223
Outline: as §2

BT-549 [8] = test system: BT-549
Outline: as §2

CAL-120 [9] = test system: CAL-120
Outline: as §2

MDA-MB-231 [10] = test system: MDA-MB-231
Outline: as §2

HCC1599 [11] = test system: HCC1599
Outline: as §2

MDA-MB-453 [12] = test system: MDA-MB-453
Outline: as §2

SK-BR-3 = test system: SK-BR-3
Outline: as §2

CAL-148 [13] = test system: CAL-148
Outline: as §2

MDA-MB-468 [14] = test system: MDA-MB-468
Outline: as §2

CAL-51 [15] = test system: CAL-51
Outline: as §2

HCC1937 [16] = test system: HCC1937
Outline: as §2

BT-474 [17] = test system: BT-474; remark: listed apart in the source
Outline: as §2

HCC1143 [18] = test system: HCC1143
Outline: as §2

HDQ-P1 [19] = test system: HDQ-P1; remark: listed apart in the source
Outline: as §1

HDQ-P1 [20] = test system: HDQ-P1; remark: listed apart in the source
Procedure: (§3)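 Drug sensitivity and resistance testing (DSRT) of breast cancer cell lines in 384-well plates, 5 concentrations in 10-fold dilutions over a compound-specific 10,000-fold range. After 72 h, cytotoxicity was read by CellTox Green fluorescence and viability by CellTiter-Glo luminescence (multiplexed), normalised to DMSO and benzethonium chloride controls. EC50 is the inflection point of the fitted dose-response curve (bottom asymptote free, so it can be relative for partial curves) and is censored at the highest tested concentration. Rows with DSS 0 (no meaningful response) were excluded.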

MDA-MB-436 [21] = test system: MDA-MB-436; remark: listed apart in the source
Procedure: as §3

MCF-10A [22] = test system: MCF-10A; remark: listed apart in the source
Procedure: as §3

Hs578T [23] = test system: Hs578T; remark: listed apart in the source
Procedure: as §3

CAL-85-1 [24] = test system: CAL-85-1; remark: listed apart in the source
Procedure: as §3

BT-549 [25] = test system: BT-549; remark: listed apart in the source
Procedure: as §3

MDA-MB-231 [26] = test system: MDA-MB-231; remark: listed apart in the source
Procedure: as §3

HCC1599 [27] = test system: HCC1599; remark: listed apart in the source
Procedure: as §3

MDA-MB-453 [28] = test system: MDA-MB-453; remark: listed apart in the source
Procedure: as §3

CAL-148 [29] = test system: CAL-148; remark: listed apart in the source
Procedure: as §3

MDA-MB-468 [30] = test system: MDA-MB-468; remark: listed apart in the source
Procedure: as §3

CAL-51 [31] = test system: CAL-51; remark: listed apart in the source
Procedure: as §3

HCC1937 [32] = test system: HCC1937; remark: listed apart in the source
Procedure: as §3

BT-474 [33] = test system: BT-474; remark: listed apart in the source
Procedure: as §3

MFM-223 [34] = test system: MFM-223; remark: listed apart in the source
Procedure: as §3

DU-4475 [35] = test system: DU-4475
Outline: as §2

CAL-120 [36] = test system: CAL-120; remark: listed apart in the source
Procedure: as §3

HCC1143 [37] = test system: HCC1143; remark: listed apart in the source
Procedure: as §3

DU-4475 [38] = test system: DU-4475; remark: listed apart in the source
Procedure: as §3

SMILES	EC50, CellTiter-Blue viability (BT-474 [1])	EC50, CellTiter-Glo (HDQ-P1 [2])	EC50, CellTiter-Glo (MDA-MB-436 [3])	EC50, CellTiter-Glo (MCF-10A [4])	EC50, CellTiter-Glo (Hs578T [5])	EC50, CellTiter-Glo (CAL-85-1 [6])	EC50, CellTiter-Glo (MFM-223 [7])	EC50, CellTiter-Glo (BT-549 [8])	EC50, CellTiter-Glo (CAL-120 [9])	EC50, CellTiter-Glo (MDA-MB-231 [10])	EC50, CellTiter-Glo (HCC1599 [11])	EC50, CellTiter-Glo (MDA-MB-453 [12])	EC50, CellTiter-Glo (SK-BR-3)	EC50, CellTiter-Glo (CAL-148 [13])	EC50, CellTiter-Glo (MDA-MB-468 [14])	EC50, CellTiter-Glo (CAL-51 [15])	EC50, CellTiter-Glo (HCC1937 [16])	EC50, CellTiter-Glo (BT-474 [17])	EC50, CellTiter-Glo (HCC1143 [18])	EC50, CellTiter-Blue viability (HDQ-P1 [19])	EC50, CellTox Green (HDQ-P1 [20])	EC50, CellTox Green (MDA-MB-436 [21])	EC50, CellTox Green (MCF-10A [22])	EC50, CellTox Green (Hs578T [23])	EC50, CellTox Green (CAL-85-1 [24])	EC50, CellTox Green (BT-549 [25])	EC50, CellTox Green (MDA-MB-231 [26])	EC50, CellTox Green (HCC1599 [27])	EC50, CellTox Green (MDA-MB-453 [28])	EC50, CellTox Green (CAL-148 [29])	EC50, CellTox Green (MDA-MB-468 [30])	EC50, CellTox Green (CAL-51 [31])	EC50, CellTox Green (HCC1937 [32])	EC50, CellTox Green (BT-474 [33])	EC50, CellTox Green (MFM-223 [34])	EC50, CellTiter-Glo (DU-4475 [35])	EC50, CellTox Green (CAL-120 [36])	EC50, CellTox Green (HCC1143 [37])	EC50, CellTox Green (DU-4475 [38])
COc1cc(Nc2c(C#N)cnc3cc(OCCCN4CCN(C)CC4)c(OC)cc23)c(Cl)cc1Cl [Bosutinib]	3.12 µM	0.972 µM	2.17 µM	0.442 µM	9.76 µM	1.58 µM	1.91 µM	3.16 µM	1.45 µM	1.81 µM	3.16 µM	3.22 µM	3.12 µM	7.59 µM	1.92 µM	1.4 µM	2.1 µM	2.48 µM	1.44 µM	2.55 µM	5.94 µM	6.62 µM	2.08 µM	0.576 µM	1.95 µM	7.58 µM	2.03 µM	> 10 µM	7.28 µM	2.05 µM	3.54 µM	1.55 µM	5.4 µM	2.83 µM					
Cc1cc(Nc2nc(N[C@@H](C)c3ncc(F)cn3)ncc2Cl)[nH]n1 [AZD1480]							0.0946 µM																			> 1 µM									0.872 µM				
CO[C@@]12[C@H](COC(N)=O)C3=C(C(=O)C(C)=C(N)C3=O)N1C[C@@H]1N[C@@H]12 [Mitomycin C]	2.5 µM		7.15 µM			2.42 µM		1.68 µM	> 10 µM				> 10 µM		3.86 µM	1.14 µM				8.56 µM	> 10 µM			> 10 µM							0.0276 µM	0.307 µM							
O=[N+]([O-])c1ccc2c(c1)S(=O)(=O)C=C2 [Stattic]		12.7 µM	7.93 µM	17.4 µM	3.13 µM	1.63 µM	2.73 µM	1.01 µM	11 µM	2.76 µM	10.6 µM	3.72 µM	8.89 µM	4.64 µM	0.446 µM	1.54 µM	2.46 µM	7.66 µM	13.2 µM		34 µM	14.4 µM	1.19 µM	1.71 µM	1.11 µM	1.07 µM	5.15 µM		27.4 µM	3.87 µM	1.13 µM	1.39 µM	0.349 µM	1.89 µM	1.23 µM	16.3 µM	34.3 µM	13.8 µM	
CN(Cc1cnc2nc(N)nc(N)c2n1)c1ccc(C(=O)N[C@@H](CCC(=O)O)C(=O)O)cc1 [Methotrexate]		0.0129 µM	1.46 µM		29 µM	2.02 µM			0.809 µM	6.84 µM	17.8 µM					0.0196 µM	0.0204 µM	7.23 µM				17.9 µM		11 µM	> 50 µM				> 50 µM										
CC1(C)CCC(c2ccc(Cl)cc2)=C(CN2CCN(c3ccc(C(=O)NS(=O)(=O)c4ccc(N[C@H](CCN5CCOCC5)CSc5ccccc5)c(S(=O)(=O)C(F)(F)F)c4)cc3)CC2)C1 [Navitoclax]		0.392 µM					> 10 µM	> 10 µM	3.9 µM	0.774 µM		6.68 µM		1 µM	0.0864 µM	1.26 µM	> 10 µM	1.68 µM		0.0274 µM	0.289 µM				0.517 µM		0.162 µM			0.306 µM	1.74 µM	0.906 µM		1.54 µM	2.2 µM	2.99 µM	0.884 µM		
CC1(COc2ccc3c(c2)ncn3-c2ccc3cccc(N4CCC(N)CC4)c3n2)COC1 [Crenolanib]		5.07 µM	4.11 µM	4.78 µM	3.34 µM	3.97 µM		1.67 µM		4.02 µM	> 10 µM	5.37 µM	4.18 µM	4.35 µM	4.75 µM	2.63 µM	> 10 µM	3.98 µM			1.04 µM	0.0293 µM	3.37 µM		2.62 µM	3 µM	2.71 µM			2.53 µM		4.71 µM		2.39 µM		3.33 µM			> 10 µM
CCN(CC)CCCC(C)Nc1ccnc2cc(Cl)ccc12 (stereo not drawn) [Chloroquine]		20.7 µM	16.3 µM	17.3 µM	30.2 µM	11.3 µM	13.7 µM	15 µM	9.49 µM	16.3 µM	14.1 µM	4.03 µM	4.91 µM	12.4 µM	10.6 µM	6.56 µM	15.3 µM	14.5 µM	43.2 µM		34.6 µM	5.41 µM	20.4 µM	18.8 µM	20.8 µM	24.8 µM	10.4 µM	17.9 µM	13.4 µM	5.12 µM	0.568 µM	50.8 µM	23.9 µM	4.95 µM	15.3 µM	18.7 µM	38.4 µM		96.8 µM
